# Data as given in patent publication US20070010669A1, “Novel class of cytodifferentiating agents and histone deacetylase inhibitors, and methods of use thereof” (priority 1999, published 2007).
# Where two headings read alike, the source gives them in different places.
# Assays:
# HDAC = HDAC (Homo sapiens, UniProt Q13547); assay: Inhibition of the enzyme HDAC (Examples 12 and 13); type: biochemical; conditions: read-out: ID50 as inhibitor of HDAC
# [1] = molecular target: T1, affinity purified human epitope-tagged (Flag) HDAC1 (Homo sapiens, UniProt Q13547); assay: Histone Deacetylase (HDAC) enzymatic activity, [3H]acetyl-labeled histone substrate; type: biochemical; design: Flag
# T1 sequence (Q13547 whole entry): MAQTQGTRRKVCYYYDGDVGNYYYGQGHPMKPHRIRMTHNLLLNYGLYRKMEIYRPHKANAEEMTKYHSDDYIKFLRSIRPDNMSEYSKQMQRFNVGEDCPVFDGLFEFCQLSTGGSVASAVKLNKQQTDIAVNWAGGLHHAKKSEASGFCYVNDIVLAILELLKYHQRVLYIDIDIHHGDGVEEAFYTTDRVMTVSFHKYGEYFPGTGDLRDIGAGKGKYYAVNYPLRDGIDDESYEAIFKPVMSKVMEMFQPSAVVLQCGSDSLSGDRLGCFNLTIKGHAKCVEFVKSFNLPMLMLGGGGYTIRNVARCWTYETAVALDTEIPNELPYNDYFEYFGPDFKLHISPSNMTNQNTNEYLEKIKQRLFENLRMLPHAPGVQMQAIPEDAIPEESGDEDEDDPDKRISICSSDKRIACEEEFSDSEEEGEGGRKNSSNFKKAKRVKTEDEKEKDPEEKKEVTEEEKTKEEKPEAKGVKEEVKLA
# Method: (§1) Substrate ([^3H]acetyl-labeled murine erythroleukemia cell-derived histone) was added and the samples were incubated for 20 min at 37° C. in a total volume of 30 μl. The reaction were then stopped and released acetate was extracted and the amount of radioactivity released determined by scintillation counting.
# as §1, with “Substrate ([^3H]acetyl-labelled” for “Substrate ([^3H]acetyl-labeled”, “The reactions” for “The reaction”, “and relaesed” for “and released”
# as §1, with “([^3H]acetyl-labelled” for “([^3H]acetyl-labeled”, “reactions” for “reaction”
# The effect was assayed by incubating the enzyme preparation in the absence of substrate on ice for 20 minutes with the indicated amounts of compound. Substrate([^3H]acetyl-labeled murine erythroleukemia cell-derived histones) was added and the samples were incubated for 20 minutes at 37° C. in a total volume of 30 μl. The reactions were then stopped and released acetate was extracted and the amount of radioactivity released determined by scintillation counting.
# [2] = test system: Murine erythroleukemia (MEL) cells; assay: MEL cell differentiation assay (benzidine assay; cell growth by Coulter Counter); type: cell-based; conditions: for MEL Differentiation % B+ / MEL Differentiation Opt.: Table 1; for MEL Differentiation % B+: benzidine-positive cells at Opt. concentration; for MEL Differentiation Opt.: optimal concentration; for MEL Diff Cells/ml × 10^−5: cell growth
# Method: (§2) The MEL cell differentiation assay was used to assess the ability of Compound 1 to induce terminal differentiation. MEL cells (logarithmically dividing) were cultured with the indicated concentrations of Compound 1. Following a 5-day culture period, cell growth was determined using a Coulter Counter and differentiation was determined microscopically using the benzidine assay to determine hemoglobin protein accumulation on a per cell basis.
# as §2, with “2” for “1”, “2.” for “1.”, “period” for “period, cell growth was determined using a Coulter Counter and”
# as §2, with “3” for “1”, “3.” for “1.”, “period” for “period, cell growth was determined using a Coulter Counter and”, “microsdopically” for “microscopically”
# as §2, with “4” for “1”, “4.” for “1.”, “period” for “period, cell growth was determined using a Coulter Counter and”
# All the compounds which were prepared were tested. […] Table 2 is compiled from experiments similar to the experiments described in Examples 7-10 above.
# [3] = test system: CWR22 human prostate xenograft; conditions: 50 mg/kg/day
# Excerpt: SAHA is currently in Phase I Clinical Trials in patients with solid tumors.
# [4] = test system: acetylated histones H3 and H4 in peripheral blood mononuclear cells; assay: Acetylated histones in peripheral blood mononuclear cells of patients under treatment; type: in vivo; conditions: IV infusion daily ×3, FIG. 10
# Method: FIG. 10. SAHA causes accumulation of acetylation histones H3 and H4 in peripheral blood […] cells in patients. SAHA was administered by IV infusion daily ×3. Samples were isolated before (Pre), following infusion (Post) and 2 hours after infusion.
# The in vivo effect of SAHA has been studied using the CWR22 human prostate xenograft in mice (68).
# [5] = molecular target: T1, affinity purified human epitope-tagged (Flag) HDAC1; conditions: cited from earlier work
# HDAC3 = HDAC3 (Homo sapiens, UniProt O15379); conditions: cited from earlier work
# HDAC3, sequence (O15379 whole entry): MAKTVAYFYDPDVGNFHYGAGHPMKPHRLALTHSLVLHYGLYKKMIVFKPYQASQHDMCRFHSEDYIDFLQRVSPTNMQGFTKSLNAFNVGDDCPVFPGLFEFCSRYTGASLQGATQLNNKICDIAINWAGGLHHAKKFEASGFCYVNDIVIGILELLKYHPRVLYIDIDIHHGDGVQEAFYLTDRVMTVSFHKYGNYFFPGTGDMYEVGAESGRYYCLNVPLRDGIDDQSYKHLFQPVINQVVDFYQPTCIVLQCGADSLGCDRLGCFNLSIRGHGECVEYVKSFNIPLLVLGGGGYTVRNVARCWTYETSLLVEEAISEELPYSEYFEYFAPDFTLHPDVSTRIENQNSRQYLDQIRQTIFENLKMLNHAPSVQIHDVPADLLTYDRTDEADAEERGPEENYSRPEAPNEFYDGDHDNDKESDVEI
# HDAC3, sequence (Q9Y618 whole entry, further chain): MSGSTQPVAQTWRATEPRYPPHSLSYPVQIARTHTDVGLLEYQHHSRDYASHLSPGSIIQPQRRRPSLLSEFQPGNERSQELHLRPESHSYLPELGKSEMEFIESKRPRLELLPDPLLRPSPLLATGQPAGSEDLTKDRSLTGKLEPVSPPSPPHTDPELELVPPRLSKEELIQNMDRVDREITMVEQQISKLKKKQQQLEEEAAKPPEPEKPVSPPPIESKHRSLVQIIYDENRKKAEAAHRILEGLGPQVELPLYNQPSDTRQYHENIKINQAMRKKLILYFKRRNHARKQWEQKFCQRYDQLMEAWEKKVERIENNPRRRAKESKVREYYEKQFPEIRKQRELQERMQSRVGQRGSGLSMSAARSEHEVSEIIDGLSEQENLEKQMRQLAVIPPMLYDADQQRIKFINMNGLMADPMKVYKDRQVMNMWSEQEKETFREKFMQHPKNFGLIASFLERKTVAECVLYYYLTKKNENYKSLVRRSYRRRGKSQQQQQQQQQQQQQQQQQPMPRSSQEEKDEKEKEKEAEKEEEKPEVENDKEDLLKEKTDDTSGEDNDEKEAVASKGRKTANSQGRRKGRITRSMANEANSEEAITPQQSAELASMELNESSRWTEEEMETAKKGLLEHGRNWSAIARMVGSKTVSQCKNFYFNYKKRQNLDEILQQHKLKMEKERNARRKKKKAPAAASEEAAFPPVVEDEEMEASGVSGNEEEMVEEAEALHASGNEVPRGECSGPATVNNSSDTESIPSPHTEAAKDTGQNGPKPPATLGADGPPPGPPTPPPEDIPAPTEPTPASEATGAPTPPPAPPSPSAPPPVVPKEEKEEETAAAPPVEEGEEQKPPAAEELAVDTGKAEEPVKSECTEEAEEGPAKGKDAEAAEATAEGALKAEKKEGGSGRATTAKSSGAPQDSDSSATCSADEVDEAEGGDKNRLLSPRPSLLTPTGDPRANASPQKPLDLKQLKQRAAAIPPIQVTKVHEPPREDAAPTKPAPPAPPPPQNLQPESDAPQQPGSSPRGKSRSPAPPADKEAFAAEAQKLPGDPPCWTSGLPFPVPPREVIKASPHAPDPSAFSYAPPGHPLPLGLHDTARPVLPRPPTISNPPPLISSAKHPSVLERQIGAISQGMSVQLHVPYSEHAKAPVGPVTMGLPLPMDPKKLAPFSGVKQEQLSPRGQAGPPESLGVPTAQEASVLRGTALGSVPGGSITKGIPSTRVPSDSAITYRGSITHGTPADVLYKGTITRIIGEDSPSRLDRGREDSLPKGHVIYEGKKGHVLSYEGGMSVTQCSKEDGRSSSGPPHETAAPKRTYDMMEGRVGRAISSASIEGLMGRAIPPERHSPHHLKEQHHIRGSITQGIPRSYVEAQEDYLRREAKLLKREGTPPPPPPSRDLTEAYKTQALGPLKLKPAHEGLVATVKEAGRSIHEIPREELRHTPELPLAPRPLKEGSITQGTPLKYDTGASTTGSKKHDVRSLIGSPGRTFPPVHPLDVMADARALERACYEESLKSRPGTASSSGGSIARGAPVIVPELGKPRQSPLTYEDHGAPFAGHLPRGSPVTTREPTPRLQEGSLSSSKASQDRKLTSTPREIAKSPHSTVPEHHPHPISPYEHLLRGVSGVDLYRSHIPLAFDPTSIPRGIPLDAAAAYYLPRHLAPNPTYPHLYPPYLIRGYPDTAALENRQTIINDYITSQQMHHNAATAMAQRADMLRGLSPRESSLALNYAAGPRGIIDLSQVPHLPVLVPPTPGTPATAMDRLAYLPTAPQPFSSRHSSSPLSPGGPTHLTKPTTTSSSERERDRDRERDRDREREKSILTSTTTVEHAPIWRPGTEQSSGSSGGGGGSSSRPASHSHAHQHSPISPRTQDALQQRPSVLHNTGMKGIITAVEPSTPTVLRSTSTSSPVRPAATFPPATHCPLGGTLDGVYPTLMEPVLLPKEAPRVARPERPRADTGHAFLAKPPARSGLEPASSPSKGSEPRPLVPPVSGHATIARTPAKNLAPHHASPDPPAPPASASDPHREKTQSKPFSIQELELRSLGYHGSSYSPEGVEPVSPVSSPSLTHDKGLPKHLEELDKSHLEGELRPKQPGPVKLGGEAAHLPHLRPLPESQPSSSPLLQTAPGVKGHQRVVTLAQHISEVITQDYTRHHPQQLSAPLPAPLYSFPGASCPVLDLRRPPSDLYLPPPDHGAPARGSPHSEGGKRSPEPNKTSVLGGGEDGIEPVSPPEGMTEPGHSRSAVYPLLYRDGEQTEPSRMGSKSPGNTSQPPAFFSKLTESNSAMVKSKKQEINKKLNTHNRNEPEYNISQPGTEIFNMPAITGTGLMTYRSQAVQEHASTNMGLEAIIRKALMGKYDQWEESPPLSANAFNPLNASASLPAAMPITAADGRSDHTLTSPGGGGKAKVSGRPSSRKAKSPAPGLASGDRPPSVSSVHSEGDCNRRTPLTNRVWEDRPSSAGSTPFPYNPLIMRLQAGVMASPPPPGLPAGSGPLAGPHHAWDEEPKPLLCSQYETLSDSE
# HDAC, sequence (Q13547 whole entry): as the sequence (Q13547 whole entry) above
Structure (SMILES),IC50 (HDAC; Example 12) [nM],"IC50 ([1]; FIGS. 2, 5, 7, read-out: ID50 of HDAC1 enzymatic activity) [nM]","IC50 ([1]; Table 1, read-out: HDAC Inhibition ID50) [nM]","IC50 ([1]; Table 2, unit nM, read-out: HDAC inh ID50) [nM]","concentration able to induce MEL cell differentiation ([2]; FIGS. 1, 3, 4, 6, 5-day culture) [nM]",MEL Differentiation % B+ [2] [%],MEL Differentiation Opt. ([2]; 5-day culture) [nM],MEL Diff % B+ ([2]; Table 2) [%],MEL Diff Cells/ml × 10^−5 ([2]; Table 2) [Cells/ml × 10^−5],IC50 (HDAC) [nM],reduction in mean final tumor volume compared to controls [3] [%],toxicity [3],acetylated histones H3 and H4 in the tumor xenograft ([3]; FIG. 9),acetylated histones H3 and H4 in peripheral blood mononuclear cells [4],inhibition of affinity purified HDAC1 [5],optimal dose for the cytodifferentiation of MEL cells ([2]; Example 12) [µM],"MEL Diff Opt. ([2]; Table 2, cells printed in μM) [µM]",inhibition of affinity purified HDAC3 (HDAC3)
"O=C(CCCCC[C@H](NC(=O)OCc1ccccc1)C(=O)Nc1cccc2cccnc12)NO [Compound 4, N-benzyloxycarbonyl-(L)-α-aminosuberoyl-8-quinolinamide-ω-hydroxamic acid]",2.5,< 10,< 10,2.5,40,8,40,8,13,–,–,–,–,–,–,–,–,–
"O=C(CCCCCCC(=O)Nc1ccccc1)NO [SAHA, suberoylanilide hydroxamic acid, reference compound]",–,–,–,–,–,68,2500,68,3.6,1000,97,no .apparent toxicity,increase,accumulation,inhibits,2.5,2.5,inhibits
